US20230181570A1, “Transdermal Formulation Containing Apomorphine” (MEDRX CO., LTD., priority 2020, published 2023)
Structures can show the parent of a compound that is named as a salt.

Test: Study of the solubility of apomorphine hydrochloride in various solvents

CN1CCc2cccc3c2[C@H]1Cc1ccc(O)c(O)c1-3 [apomorphine hydrochloride]
solubility (each used alone: water, 1,3-butanediol, polyethylene glycol, propylene glycol, glycerin, propylene carbonate): ≤ 3 % by weight | apomorphine hydrochloride solution able to be prepared (low molecular weight polyethylene glycol combined with propylene carbonate): 8 % by weight | solubility in propylene carbonate (propylene carbonate used alone): 0.25 % by weight | apomorphine hydrochloride solution able to be prepared (propylene glycol and propylene carbonate, weight of propylene glycol five times or more that of propylene carbonate): 10 % by weight
